Columns and labels:
[1] = target: T1, Serine hydroxymethyltransferase, mitochondrial (Homo sapiens) (UniProt P34897); test: Inhibition of His-tagged human recombinant SHMT2 expressed in Escherichia coli BLR(DE3) assessed as reduction in NADPH level using L-serine, THF and NADP+ at 6.5 or 26.5 uM incubated for 5 mins by SHMT2-MTHFD coupled reaction based fluorescence assay relative to control
T1 sequence (whole entry): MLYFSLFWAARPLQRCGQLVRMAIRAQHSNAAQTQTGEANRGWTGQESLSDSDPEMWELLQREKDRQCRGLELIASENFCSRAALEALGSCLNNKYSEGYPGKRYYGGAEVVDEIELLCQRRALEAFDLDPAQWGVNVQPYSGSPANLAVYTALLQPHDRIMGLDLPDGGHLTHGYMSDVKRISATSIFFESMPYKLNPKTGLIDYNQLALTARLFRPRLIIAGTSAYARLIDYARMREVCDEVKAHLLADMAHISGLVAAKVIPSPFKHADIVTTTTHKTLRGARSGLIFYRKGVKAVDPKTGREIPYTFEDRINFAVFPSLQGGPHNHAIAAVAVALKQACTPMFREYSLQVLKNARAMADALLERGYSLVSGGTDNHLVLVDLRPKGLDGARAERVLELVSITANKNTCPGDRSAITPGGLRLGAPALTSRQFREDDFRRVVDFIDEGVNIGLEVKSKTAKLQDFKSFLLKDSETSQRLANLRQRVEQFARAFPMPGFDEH

[2] = target: T2, Serine hydroxymethyltransferase, mitochondrial (Homo sapiens, UniProt P34897); test: Inhibition of His-tagged human recombinant SHMT2 expressed in Escherichia coli BLR(DE3) assessed as reduction in NADPH level using L-serine, THF and NADP+ incubated for 5 mins by SHMT2-MTHFD coupled reaction based fluorescence assay
T2 sequence (P34897 whole entry): T1 sequence (whole entry)

Row | Compound | inhibition [1] | IC50 ([2]; read-out: IC50) | further results
1 | Oc1ccc2[nH]cc(C3=CCNCC3)c2n1 | 73.2% | – | –
2 | Nc1cc(-c2ccncc2)c[nH]c1=O | 92.3% | – | –
3 | CC(C)(C)C(=O)C(C#N)CNc1cccc2nsnc12 (stereo unspecified) | 69.6% | – | –
4 | CC(=O)[C@H]1CC[C@H]2[C@@H]3CCC4C[C@H](O)CC[C@]4(C)[C@H]3C[C@H](O)[C@]12C (stereo partly specified) | 71.6% | – | –
5 | CCOC(=O)[C@H](CCc1ccccc1)N[C@H](C)C(=O)N1C2CCCCC2C[C@H]1CO (stereo partly specified) | 53% | – | –
6 | COC(=O)[C@@H]1OC(=O)C2OC23[C@]2(C)[C@H](O)CC4C(C)(C)[C@H](OC(C)=O)C[C@H](OC(C)=O)[C@]4(C)[C@H]2CC[C@@]13C (stereo partly specified) | 81.8% | – | –
7 | COC(=O)[C@@H](c1ccc2sccc2c1)c1ccccc1Cl | 53.3% | – | –
8 | Brc1c(NC2=NCCN2)ccc2nccnc12 | 79% | – | –
9 | CCC(N)C(O)c1ccc(O)c(O)c1 (stereo unspecified) | 87% | – | –
10 | COC(=O)CC1C(C)(C)C(OC(C)=O)[C@@H]2[C@@H](OC(C)=O)[C@]34O[C@@H]2[C@]1(C)C3CC[C@]1(C)C4=CC(=O)O[C@H]1c1ccoc1 (stereo partly specified) | 52.4% | – | –
11 | NC(=O)NC1NC(=O)NC1=O (stereo unspecified) | 58.2% | – | –
12 | CN1CCN(CCCN2c3ccccc3SC3C=CC(Cl)=CC32)CC1 (stereo unspecified) | 61.6% | – | –
13 | Cc1cccc(CCN2CCC(C(=O)c3ccc(NS(C)(=O)=O)cc3)CC2)n1 | 54.9% | – | –
14 | Cc1[nH]c2ccc(O)cc2c1CCN | 59% | – | –
15 | COC(=O)/C=C(/Nc1cc(OC)ccc1OC)C(=O)OC | 56.3% | – | –
16 | Cc1nc2c(OCc3ccccc3)cccn2c1CC#N | 77.9% | – | –
17 | COc1ccc2c(c1O)-c1c(OC)c(OC)cc3c1C(C2)N(C)CC3 (stereo unspecified) | 69.3% | – | –
18 | Nc1nc(=O)c2nc(CNc3ccc(C(=O)N[C@@H](CCC(=O)O)C(=O)O)cc3)cnc2[nH]1 | 53.6% | – | –
19 | CCNc1cc(N)[n+](CC)c2[nH]nc(/N=C/c3cc(Cl)cc(Cl)c3O)c12 | 97% | – | –
20 | Fc1ccc(COc2ccc(-c3nnco3)cc2)cc1 | 53.7% | – | –
21 | CC(=O)C1CC[C@H]2C3CC[C@H]4C[C@H](O)CC[C@]4(C)C3CC[C@]12C (stereo partly specified) | 65.9% | – | –
22 | CC(C)Cn1cc(NC(=O)Nc2ccccc2)c2ccccc2c1=O | – | 2.4 µM | –
23 | CC(=O)Nc1ncc2c(n1)CC(c1ccco1)CC2=O (stereo unspecified) | – | 4.57 µM | –
24 | CCOC(=O)c1c(S(=O)(=O)Nc2ccc(OC)c(OC)c2)c(C)n(C)c1C | – | 8.13 µM | –
25 | COc1cc(NC(=O)n2ncc3cc(Cl)ccc32)cc(OC)c1 | – | 11.8 µM | –
26 | CCCCC(=O)Nc1cc(F)c2nc(N3CCOCC3)ccc2c1 | – | 1.58 µM | –

Row | Compound | inhibition [1] | IC50 ([2]; read-out: IC50) | further results
27 | O=C(CSc1nc2ncccc2o1)Nc1ccc(S(=O)(=O)N2CCOCC2)cc1 | – | 2.63 µM | –
28 | CCOc1cc(-c2nnc3[nH]c(=O)n(C)c(=O)c3n2)ccc1OC(C)C | – | 0.69 µM | –
29 | COc1cc(OC)c(NC(=O)N2CCC3(CC2)Nc2cc(F)ccc2-n2cccc23)cc1Cl | – | 4.17 µM | –
30 | O=C(Nc1cccc2c(=O)cc(-c3nnn[nH]3)oc12)c1ccc(OCCCCc2ccccc2)cc1 | 65.5% | – | –
31 | O=C(O)CCc1nc(-c2ccccc2)c(-c2ccccc2)o1 [OXAPROZIN] | – | – | IC50 ([2]; read-out: pIC50 (converted)): 1.95 µM
32 | Cc1cccc(NC(=O)Nc2cn(CC(C)C)c(=O)c3ccccc23)n1 | – | 2.57 µM | –
33 | CC(C)Cn1cc(NC(=O)Nc2ccc(F)cc2Cl)c2ccccc2c1=O | – | 1.86 µM | –
34 | COc1ccc(Cl)cc1NC(=O)N1CC2CCCN2c2ccccc21 (stereo unspecified) | – | 2 µM | –
35 | CC1=NC2c3c(oc(C(=O)NC4CCCC4)c3C)CCC2S1 (stereo unspecified) | – | 4.37 µM | –
36 | CCOC(=O)C1CCCN(C(=O)Nc2cn(C)c(=O)c3ccccc23)C1 (stereo unspecified) | – | 6.46 µM | –
37 | O=c1c(Nc2cccc3c2CCCC3)c(-c2ccc(Cl)cc2)c1=O | – | 5.25 µM | –
38 | CN1CC[C@@]2(C)c3cc(OC(=O)Nc4ccccc4)ccc3N(C)[C@@H]12 | 56.6% | – | –
39 | O=C1c2ccccc2C(Nc2ccc3[nH]c(-c4cccnc4)nc3c2)N1Cc1ccco1 (stereo unspecified) | – | 9.77 µM | –
40 | N#Cc1ccc(S(=O)(=O)Cc2cccc3ccccc23)cc1 | 54.5% | – | –
41 | CC(=O)N[C@H]1CN2CC[C@H](O)[C@@H]2[C@@H](O)[C@@H]1O | 63.8% | – | –
42 | COc1cc(NC(=O)C2=Cc3sc(C)c(C)c3CS2)cc(OC)c1 | – | 6.76 µM | –
43 | Cc1cc(=O)c2c(=O)n(-c3nc4ccccc4s3)[nH]c2[nH]1 | – | 1.62 µM | –
44 | COc1cc(OC)c(NC(=O)NCCC2=CSC3CC(C)CCC23)cc1Cl (stereo unspecified) | – | 7.08 µM | –
45 | CCOC(=O)C1CCCN(c2cc(C(=O)O)c3cc(N)ccc3n2)C1 (stereo unspecified) | – | 5.5 µM | –
46 | CCNc1nc2[nH]c(=O)cc(O)c2s1 | – | 1.91 µM | –
47 | COc1c(C)cnc(CSc2nc3ncccc3o2)c1C | – | 4.07 µM | –
48 | COc1ccc(OC)c(NC(=S)N2CCN(c3ncc(C(F)(F)F)cc3Cl)CC2)c1 | 60.2% | – | –
49 | c1ccc2c(N3CCNCC3)cccc2c1 | 86.1% | – | –
50 | CN1CCc2nc3sc(C(=O)c4ccc(Cl)cc4)c(N)c3cc2C1 | – | 3.89 µM | –
51 | Cc1c(C(=O)NCCN2CCOCC2)oc2c1-c1[nH]ncc1CC2 | – | 3.55 µM | –

From ChEMBL document CHEMBL4418497, “Compositions and methods relating to inhibiting serine hyrdoxymethyltransferase 2 activity” (2016)
